# Measured values reported in patent US20250241892A1, “5-METHOXY-N,N-[…][…] THE TREATMENT OF PSYCHOMOTOR RETARDATION” (GH RESEARCH IRELAND LIMITED, priority 2022, published 2025).
# System: patients with postpartum depression (PPD)
# Assay: Clinical trial of inhaled 5-MeO-DMT in postpartum depression
# Settings: 1 patient
# Procedure: The single-arm, open-label clinical trial will involve 15 adult female patients with clinically diagnosed postpartum depression (PPD).
# The second dose (12 mg) will only be administered if: • a. A peak experience (total score of ⋅75) has not been achieved following the 6 mg dose, and • b. The 6 mg dose was safe and well-tolerated according to the investigator, • c. Any psychoactive effects (PsE) of the prior dose have subsided, and • d. Pre-dose vital parameters and forced expiratory volume in one second (FEV1) are in normal range, or if outside of the normal range, are not clinically significant according to the investigator. • 3. Similarly, a third dose (18 mg) will only be administered if: • a. A peak experience (total score of ⋅75) has not been achieved following the 12 mg dose, and • b. The 12 mg dose was safe and well-tolerated according to the investigator, and • c. Any PsE of the prior dose have subsided, and • d. Pre-dose vital parameters and forced expiratory volume in one second (FEV1) are in normal range, or if outside of the normal range, are not clinically significant according to the investigator.
# The patients will be assessed for a peak psychedelic experience (based on a patient-scored visual analogue scale, the PE scale), sedation, and other endpoints after dosing. Follow-up visits are planned for Day 1, and Day 7 after the dosing day.
# The following criteria must be met by all patients considered for clinical trial participation: • 1. Is female and in the age range between 18 and 45 years (inclusive) at screening. • 2. Has a body mass index (BMI) in the range of 18.5 and 35 kg/m^2 (inclusive) at screening. • 3. Meets the trial criteria for PPD as assessed by a trial psychiatrist or registered psychologist: • a. Diagnosis of Major Depressive Disorder without psychotic features, confirmed by the Mini-International Neuropsychiatric Interview (MINI), with peri-partum onset that began no earlier than gestation and no later than the first 4 weeks postpartum. • b. Has a Montgomery-Åsberg Depression Rating Scale (MADRS) total score of equal to or greater than 28 at screening and pre-dose on Day 0. • 6. […] Patients must have a negative pregnancy test at screening and on the pre-test day (Day −1). • 5. Is willing to delay start of other antidepressant or anxiety medication until after the end of the trial at Day 7 and agrees to keep any psychotherapy unchanged during the trial.
# A potential patient who meets any of the following key exclusion criteria will be excluded from participation in this trial: • 1. Has, based on history, psychiatric assessment, and evaluation of the MINI, a current or prior diagnosis of bipolar disorder, a manic or hypomanic episode, a psychotic disorder, Major Depressive Disorder (MDD) or other mood disorder with psychotic features, obsessive compulsive disorder, post-traumatic stress disorder (PTSD), autism spectrum disorder, borderline personality disorder, schizophrenia, delusional disorder, paranoid personality disorder, schizoaffective disorder, clinically significant intellectual disability, or any other psychiatric comorbidity that renders the patient unsuitable for the trial according to the investigator's judgment. • 2. Has one or more first or second degree relatives with a current or previously diagnosed bipolar disorder, psychotic disorder or other mood disorder (including MDD) with psychotic features. • 3. Is in the judgement of a trial psychiatrist or registered psychologist, at significant risk for suicide based on history, psychiatric assessment, and evaluation of suicidal ideation and suicidal behaviour based on the Columbia-Suicide Severity Rating Scale (C-SSRS). • 4. Has taken anti-depressive medication within 14 days or 5 half-lives (whichever is longer) prior to dosing (exception: within the last 5 weeks in the case of fluoxetine). • 5.
structure (smiles),measurement,setting,value
COc1ccc2[nH]cc(CCN(C)C)c2c1 [5-MeO-DMT],BPRS Mannerisms and Posturing score,"Day 7, baseline 1",1
same,BPRS Motor retardation score,"Day 7, baseline 1",1
same,BPRS Suspiciousness score,"Day 7, baseline 1",1
same,BPRS Uncooperativeness score,"Day 7, baseline 1",1
same,BPRS Unusual Thought Content score,"Day 7, baseline 1",1
same,BPRS Excitement score,"Day 7, baseline 2",1
same,MADRS Inability to Feel score,"Day 7, baseline 3",0
same,MADRS Lassitude score,"Day 7, baseline 3",0
same,MADRS Pessimistic Thoughts score,"Day 7, baseline 4",0
same,MADRS Reported sadness score,"Day 7, baseline 4",0
same,BPRS Emotional withdrawal score,"Day 7, baseline 5",1
same,MADRS Apparent sadness score,"Day 7, baseline 5",0
same,MADRS Inner Tension score,"Day 7, baseline 5",1
same,MADRS Reduced Sleep score,"Day 7, baseline 5",0
same,BPRS Depressive Mood score,"Day 7, baseline 6",1
same,BPRS Guilt feelings score,"Day 7, baseline 6",1
same,BPRS Somatic Concern score,"Day 7, baseline 6",1
same,BPRS Tension score,"Day 7, baseline 6",1
same,BPRS Anxiety score,"Day 7, baseline 7",1
same,BIMF functional domain Adjustment Δ (Day 7),Day 7 vs Day 0,1
same,BIMF functional domain Infant Care Δ (Day 7),Day 7 vs Day 0,0
same,BIMF functional domain Management Δ (Day 7),Day 7 vs Day 0,5
same,BIMF functional domain Mother-Child Interaction Δ (Day 7),Day 7 vs Day 0,2
same,BIMF functional domain Psychological Well-being Δ (Day 7),Day 7 vs Day 0,9
same,BIMF functional domain Self Care Δ (Day 7),Day 7 vs Day 0,4
same,BIMF functional domain Social Support Δ (Day 7),Day 7 vs Day 0,1
same,BIMF item 1 (I am a good mother) Δ (Day 7),Day 7 vs Day 0,0
same,BIMF item 2 (I feel rested) Δ (Day 7),Day 7 vs Day 0,2
same,BIMF item 3 (comfortable with the way I've chosen to feed my baby) Δ (Day 7),Day 7 vs Day 0,0
same,BIMF item 4 (My baby and I understand each other) Δ (Day 7),Day 7 vs Day 0,0
same,BIMF item 5 (able to relax and enjoy time with my baby) Δ (Day 7),Day 7 vs Day 0,1
same,BIMF item 6 (people in my life that I can trust to care for my baby) Δ (Day 7),Day 7 vs Day 0,0
same,BIMF item 8 (getting enough adult interaction) Δ (Day 7),Day 7 vs Day 0,0
same,BIMF item 9 (getting enough encouragement from other people) Δ (Day 7),Day 7 vs Day 0,1
same,BIMF item 10 (I trust my own feelings (instincts)) Δ (Day 7),Day 7 vs Day 0,1
same,BIMF item 11 (a little time each week to do something for myself) Δ (Day 7),Day 7 vs Day 0,1
same,BIMF item 12 (taking good care of my baby's physical needs) Δ (Day 7),Day 7 vs Day 0,0
same,BIMF item 13 (taking good care of my physical needs) Δ (Day 7),Day 7 vs Day 0,1
same,BIMF item 14 (good decisions about my baby's health and well being) Δ (Day 7),Day 7 vs Day 0,0
same,BIMF item 15 (My baby and I are getting into a routine) Δ (Day 7),Day 7 vs Day 0,1
same,BIMF item 16 (I worry about how other people judge me) Δ (Day 7),Day 7 vs Day 0,2
same,BIMF item 17 (able to take care of my baby and my other responsibilities) Δ (Day 7),Day 7 vs Day 0,0
same,BIMF item 18 (Anxiety or worry often interferes with my mothering ability) Δ (Day 7),Day 7 vs Day 0,3
same,BIMF item 19 (getting better at taking care of my baby) Δ (Day 7),Day 7 vs Day 0,1
same,BIMF item 20 (satisfied with the job I am doing as a new mother) Δ (Day 7),Day 7 vs Day 0,−1
same,BPRS Anxiety improvement,Day 7 vs baseline,6
same,BPRS Blunted affect improvement,Day 7 vs baseline,0
same,BPRS Conceptual disorganization improvement,Day 7 vs baseline,0
same,BPRS Depressive Mood improvement,Day 7 vs baseline,5
same,BPRS Disorientation improvement,Day 7 vs baseline,0
same,BPRS Emotional withdrawal improvement,Day 7 vs baseline,4
same,BPRS Excitement improvement,Day 7 vs baseline,1
same,BPRS Grandiosity improvement,Day 7 vs baseline,0
same,BPRS Guilt feelings improvement,Day 7 vs baseline,5
same,BPRS Hallucinatory behaviour improvement,Day 7 vs baseline,0
same,BPRS Hostility improvement,Day 7 vs baseline,0
same,BPRS Mannerisms and Posturing improvement,Day 7 vs baseline,0
same,BPRS Motor retardation improvement,Day 7 vs baseline,0
same,BPRS Somatic Concern improvement,Day 7 vs baseline,5
same,BPRS Suspiciousness improvement,Day 7 vs baseline,0
same,BPRS Tension improvement,Day 7 vs baseline,5
same,BPRS Uncooperativeness improvement,Day 7 vs baseline,0
same,BPRS Unusual Thought Content improvement,Day 7 vs baseline,0
same,MADRS Apparent sadness improvement,Day 7 vs baseline,5
same,MADRS Concentration Difficulties improvement,Day 7 vs baseline,0
same,MADRS Inability to Feel improvement,Day 7 vs baseline,3
same,MADRS Inner Tension improvement,Day 7 vs baseline,4
same,MADRS Lassitude improvement,Day 7 vs baseline,3
same,MADRS Pessimistic Thoughts improvement,Day 7 vs baseline,4
same,MADRS Reduced Sleep improvement,Day 7 vs baseline,5
same,MADRS Reduced appetite improvement,Day 7 vs baseline,0
same,MADRS Reported sadness improvement,Day 7 vs baseline,4
same,MADRS Suicidal Thoughts improvement,Day 7 vs baseline,0
same,BPRS Anxiety improvement,Discharge vs baseline,6
same,BPRS Blunted affect improvement,Discharge vs baseline,0
same,BPRS Conceptual disorganization improvement,Discharge vs baseline,0
same,BPRS Depressive Mood improvement,Discharge vs baseline,5
same,BPRS Disorientation improvement,Discharge vs baseline,0
same,BPRS Emotional withdrawal improvement,Discharge vs baseline,4
same,BPRS Excitement improvement,Discharge vs baseline,1
same,BPRS Grandiosity improvement,Discharge vs baseline,0
same,BPRS Guilt feelings improvement,Discharge vs baseline,5
same,BPRS Hallucinatory behaviour improvement,Discharge vs baseline,0
same,BPRS Hostility improvement,Discharge vs baseline,0
same,BPRS Mannerisms and Posturing improvement,Discharge vs baseline,0
same,BPRS Motor retardation improvement,Discharge vs baseline,0
same,BPRS Somatic Concern improvement,Discharge vs baseline,5
same,BPRS Suspiciousness improvement,Discharge vs baseline,0
same,BPRS Uncooperativeness improvement,Discharge vs baseline,0
same,BPRS Unusual Thought Content improvement,Discharge vs baseline,0
same,BPRS Blunted affect score,"Discharge, baseline 1",1
same,BPRS Conceptual disorganization score,"Discharge, baseline 1",1
same,BPRS Disorientation score,"Discharge, baseline 1",1
same,BPRS Grandiosity score,"Discharge, baseline 1",1
same,BPRS Hallucinatory behaviour score,"Discharge, baseline 1",1
same,BPRS Hostility score,"Discharge, baseline 1",1
same,BPRS Mannerisms and Posturing score,"Discharge, baseline 1",1
same,BPRS Motor retardation score,"Discharge, baseline 1",1
same,BPRS Suspiciousness score,"Discharge, baseline 1",1
same,BPRS Uncooperativeness score,"Discharge, baseline 1",1
same,BPRS Unusual Thought Content score,"Discharge, baseline 1",1
same,BPRS Excitement score,"Discharge, baseline 2",1
same,BPRS Emotional withdrawal score,"Discharge, baseline 5",1
same,BPRS Depressive Mood score,"Discharge, baseline 6",1
same,BPRS Guilt feelings score,"Discharge, baseline 6",1
same,BPRS Somatic Concern score,"Discharge, baseline 6",1
same,BPRS Tension score,"Discharge, baseline 6",1
same,BPRS Anxiety score,"Discharge, baseline 7",1
same,Changes in vital parameters,shortly after administration,"temporary, clinically non-relevant increase in heart rate and blood pressure"
